{"source": "patent US20160367529A1", "about": "“DEBILITY PREVENTATIVE” (AJINOMOTO CO., INC., priority 2014, published 2016)", "assay": "Body weight of low protein model rat fed amino acid added diet", "assay_type": "in vivo", "conditions": "vs 1% C group", "protocol": "Using 10-week-old CD(SD) male rats, they were raised on a 1 wt % casein feed obtained by reducing the protein in standard purified diet AIN-93G (manufactured by Oriental yeast Co., Ltd.) (Table 14). The animal fed on the 1 wt % casein diet for 28 days (4 weeks) was used as a low protein model, and an influence of amino acid administration was evaluated. 10-week-old CD(SD) male rats were divided into the groups shown in Table 17, casein 20 wt % (20% C group) or 1 wt % feed was fed for 28 days according to the schedule shown in FIG. 1, and the body weight of rats thereafter fed with a 1 wt % casein diet (1% C group),and further added with each amino acid shown in Table 16 (4AA addition group (4AA group); a group of 4AA less tryptophan (−Trp group); a group of 4AA less methionine (−Met group); and a group of 4AA less threonine (−Thr group)) was measured. 10-week-old CD(SD) male rats were divided into the groups shown in Table 18, casein 20 wt % (20% C group) or 1 wt % feed was fed for 28 days according to the schedule shown in FIG. 1, and the body weight of rats thereafter fed with a 1 wt % casein diet (1% C group), and further added with the amino acid shown in Table 16 (4AA addition group (4AA group); an isoleucine and threonine combined use group (Ile, Thr group); an isoleucine addition group (Ile group); and the a threonine addition group (Thr group)) was measured. 10-week-old CD(SD) male rats were divided into the groups shown in Table 19, casein 20 wt % (20% C group) or 1 wt % feed was fed for 28 days according to the schedule shown in FIG. 1, and the body weight and weight of viscera-isolated carcass of rats thereafter fed for 14 days with a 1 wt % casein diet (1% C group), and further added with 1.15 g of the amino acid shown in Table 20 per 1 kg feed (4AA addition group (4AA group); a group of essential and non-essential amino acids addition group less 4AA (ALL-4AA group); essential amino acid addition group less 4AA (EAA-4AA group), non-essential amino acid addition group (NEAA group); and glycine addition group (Gly group)) was measured. […]", "key": {"[1]": {"conditions": "Experimental Example 4, 14 days after feeding amino acid added 1 wt % casein diet, FIG. 5"}}}
{"smiles": "CC[C@H](C)[C@H](N)C(=O)O", "note": "[Ile, isoleucine]", "values": [{"measurement": "body weight (ratio to day 0)", "setting": "[1]", "value": "increase of the body weight was weakened"}]}
{"smiles": "NCC(=O)O", "note": "[Gly, glycine]", "values": [{"measurement": "body weight (ratio to day 0)", "setting": "Experimental Example 5, 14 days after feeding diet with 1.15 g amino acid per 1 kg feed, FIG. 6", "value": "not recovered"}]}
{"smiles": "C[C@@H](O)[C@H](N)C(=O)O", "note": "[Thr, threonine]", "values": [{"measurement": "body weight (ratio to day 0)", "setting": "[1]", "value": "significantly recovered"}]}
